# Laboratory results from the NIST ThermoML archive (doi:10.1016/j.jct.2010.07.016).
# Numbers after ± are expanded uncertainties.
# Key:
# [1] = xn = mol fraction of the nth substance listed; conditions: 308.15 K, 101 kPa, Liquid; for excess molar volume: Direct dilatometry; for speed of sound: Linear variable-path acoustic interferometer
# [2] = excess molar enthalpy (molar enthalpy of mixing); xn = mol fraction of the nth substance listed; conditions: 308.15 K, 101 kPa, Liquid, Drop calorimeter
compound,measurement,setting,value
C1CCOCC1 [tetrahydropyran] + Cc1ccc(C)cc1,excess molar volume,[1]; x1 = 0.0639,-2.2e-08 ± 2e-09 m3/mol
same,excess molar volume,[1]; x1 = 0.1503,-4.3e-08 ± 2e-09 m3/mol
same,excess molar volume,[1]; x1 = 0.2321,-5.5e-08 ± 2e-09 m3/mol
same,excess molar volume,[1]; x1 = 0.2835,-5.9e-08 ± 2e-09 m3/mol
same,excess molar volume,[1]; x1 = 0.3331,-6.1e-08 ± 2e-09 m3/mol
same,excess molar volume,[1]; x1 = 0.3832,-6.1e-08 ± 2e-09 m3/mol
same,excess molar volume,[1]; x1 = 0.4421,-6e-08 ± 2e-09 m3/mol
same,excess molar volume,[1]; x1 = 0.5127,-5.7e-08 ± 2e-09 m3/mol
same,excess molar volume,[1]; x1 = 0.5515,-5.4e-08 ± 2e-09 m3/mol
same,excess molar volume,[1]; x1 = 0.6027,-4.9e-08 ± 2e-09 m3/mol
same,excess molar volume,[1]; x1 = 0.6529,-4.4e-08 ± 2e-09 m3/mol
same,excess molar volume,[1]; x1 = 0.7211,-3.6e-08 ± 2e-09 m3/mol
same,excess molar volume,[1]; x1 = 0.7905,-2.7e-08 ± 2e-09 m3/mol
same,excess molar volume,[1]; x1 = 0.8673,-1.7e-08 ± 2e-09 m3/mol
same,speed of sound,[1]; x1 = 0.0784,1271 ± 3 m/s
same,speed of sound,[1]; x1 = 0.1521,1267 ± 3 m/s
same,speed of sound,[1]; x1 = 0.2123,1263 ± 3 m/s
same,speed of sound,[1]; x1 = 0.2876,1258 ± 3 m/s
same,speed of sound,[1]; x1 = 0.3342,1255 ± 3 m/s
same,speed of sound,[1]; x1 = 0.4091,1251 ± 3 m/s
same,speed of sound,[1]; x1 = 0.4953,1247 ± 3 m/s
same,speed of sound,[1]; x1 = 0.5186,1245 ± 3 m/s
same,speed of sound,[1]; x1 = 0.5684,1243 ± 3 m/s
same,speed of sound,[1]; x1 = 0.6175,1241 ± 3 m/s
same,speed of sound,[1]; x1 = 0.7077,1237 ± 3 m/s
same,speed of sound,[1]; x1 = 0.7909,1233 ± 3 m/s
same,speed of sound,[1]; x1 = 0.8666,1230 ± 3 m/s
same,speed of sound,[1]; x1 = 0.9354,1227 ± 3 m/s
same,excess molar enthalpy,[2]; x1 = 0.0804,-0.00684 ± 0.000263 kcal/mol
same,excess molar enthalpy,[2]; x1 = 0.1402,-0.0127 ± 0.000359 kcal/mol
same,excess molar enthalpy,[2]; x1 = 0.2416,-0.0226 ± 0.00055 kcal/mol
same,excess molar enthalpy,[2]; x1 = 0.3002,-0.0274 ± 0.000669 kcal/mol
same,excess molar enthalpy,[2]; x1 = 0.3842,-0.0325 ± 0.000765 kcal/mol
same,excess molar enthalpy,[2]; x1 = 0.4706,-0.0349 ± 0.000813 kcal/mol
same,excess molar enthalpy,[2]; x1 = 0.5776,-0.0335 ± 0.000789 kcal/mol
same,excess molar enthalpy,[2]; x1 = 0.6454,-0.0302 ± 0.000717 kcal/mol
same,excess molar enthalpy,[2]; x1 = 0.6914,-0.0271 ± 0.000645 kcal/mol
same,excess molar enthalpy,[2]; x1 = 0.7432,-0.0228 ± 0.000574 kcal/mol
same,excess molar enthalpy,[2]; x1 = 0.7919,-0.0183 ± 0.000478 kcal/mol
same,excess molar enthalpy,[2]; x1 = 0.8476,-0.0129 ± 0.000359 kcal/mol
same,excess molar enthalpy,[2]; x1 = 0.9021,-0.0077 ± 0.000263 kcal/mol
same,excess molar enthalpy,[2]; x1 = 0.9415,-0.00423 ± 0.000215 kcal/mol
C1CCOCC1 [tetrahydropyran] + Cc1ccccc1,excess molar volume,[1]; x1 = 0.0554,-3.1e-08 ± 2e-09 m3/mol
same,excess molar volume,[1]; x1 = 0.0673,-3.7e-08 ± 2e-09 m3/mol
same,excess molar volume,[1]; x1 = 0.085,-4.6e-08 ± 2e-09 m3/mol
same,excess molar volume,[1]; x1 = 0.1534,-7.9e-08 ± 2e-09 m3/mol
same,excess molar volume,[1]; x1 = 0.1861,-9.2e-08 ± 2e-09 m3/mol
same,excess molar volume,[1]; x1 = 0.2311,-1.1e-07 ± 3e-09 m3/mol
same,excess molar volume,[1]; x1 = 0.2942,-1.29e-07 ± 3e-09 m3/mol
same,excess molar volume,[1]; x1 = 0.4109,-1.53e-07 ± 3e-09 m3/mol
same,excess molar volume,[1]; x1 = 0.5273,-1.59e-07 ± 3e-09 m3/mol
same,excess molar volume,[1]; x1 = 0.6433,-1.46e-07 ± 3e-09 m3/mol
same,excess molar volume,[1]; x1 = 0.7215,-1.27e-07 ± 3e-09 m3/mol
same,excess molar volume,[1]; x1 = 0.8202,-9.3e-08 ± 2e-09 m3/mol
same,excess molar volume,[1]; x1 = 0.9297,-4e-08 ± 2e-09 m3/mol
same,excess molar volume,[1]; x1 = 0.9735,-1.6e-08 ± 2e-09 m3/mol
same,speed of sound,[1]; x1 = 0.0925,1259 ± 3 m/s
same,speed of sound,[1]; x1 = 0.1343,1258 ± 3 m/s
same,speed of sound,[1]; x1 = 0.1789,1257 ± 3 m/s
same,speed of sound,[1]; x1 = 0.2587,1256 ± 3 m/s
same,speed of sound,[1]; x1 = 0.3742,1254 ± 3 m/s
same,speed of sound,[1]; x1 = 0.4263,1253 ± 3 m/s
same,speed of sound,[1]; x1 = 0.4815,1251 ± 3 m/s
same,speed of sound,[1]; x1 = 0.5187,1250 ± 3 m/s
same,speed of sound,[1]; x1 = 0.5795,1248 ± 3 m/s
same,speed of sound,[1]; x1 = 0.6765,1243 ± 3 m/s
same,speed of sound,[1]; x1 = 0.7122,1242 ± 3 m/s
same,speed of sound,[1]; x1 = 0.7646,1239 ± 3 m/s
same,speed of sound,[1]; x1 = 0.8487,1234 ± 3 m/s
same,speed of sound,[1]; x1 = 0.9252,1229 ± 3 m/s
same,excess molar enthalpy,[2]; x1 = 0.0445,-0.00681 ± 0.000263 kcal/mol
same,excess molar enthalpy,[2]; x1 = 0.0662,-0.0102 ± 0.000311 kcal/mol
same,excess molar enthalpy,[2]; x1 = 0.0837,-0.0129 ± 0.000359 kcal/mol
same,excess molar enthalpy,[2]; x1 = 0.1138,-0.0176 ± 0.000454 kcal/mol
same,excess molar enthalpy,[2]; x1 = 0.2154,-0.0324 ± 0.000765 kcal/mol
same,excess molar enthalpy,[2]; x1 = 0.2806,-0.0403 ± 0.000932 kcal/mol
same,excess molar enthalpy,[2]; x1 = 0.3031,-0.0427 ± 0.00098 kcal/mol
same,excess molar enthalpy,[2]; x1 = 0.397,-0.0502 ± 0.00112 kcal/mol
same,excess molar enthalpy,[2]; x1 = 0.5319,-0.0532 ± 0.0012 kcal/mol
same,excess molar enthalpy,[2]; x1 = 0.6305,-0.0492 ± 0.00112 kcal/mol
same,excess molar enthalpy,[2]; x1 = 0.7413,-0.0389 ± 0.000908 kcal/mol
same,excess molar enthalpy,[2]; x1 = 0.8325,-0.0268 ± 0.000645 kcal/mol
same,excess molar enthalpy,[2]; x1 = 0.9352,-0.0106 ± 0.000335 kcal/mol
same,excess molar enthalpy,[2]; x1 = 0.9727,-0.00447 ± 0.000215 kcal/mol
C1CCOCC1 [tetrahydropyran] + c1ccccc1,excess molar volume,[1]; x1 = 0.0684,-4.9e-08 ± 2e-09 m3/mol
same,excess molar volume,[1]; x1 = 0.1029,-6.9e-08 ± 2e-09 m3/mol
same,excess molar volume,[1]; x1 = 0.1673,-1.01e-07 ± 2e-09 m3/mol
same,excess molar volume,[1]; x1 = 0.1835,-1.08e-07 ± 3e-09 m3/mol
same,excess molar volume,[1]; x1 = 0.243,-1.29e-07 ± 3e-09 m3/mol
same,excess molar volume,[1]; x1 = 0.3143,-1.45e-07 ± 3e-09 m3/mol
same,excess molar volume,[1]; x1 = 0.4085,-1.56e-07 ± 3e-09 m3/mol
same,excess molar volume,[1]; x1 = 0.5291,-1.52e-07 ± 3e-09 m3/mol
same,excess molar volume,[1]; x1 = 0.599,-1.42e-07 ± 3e-09 m3/mol
same,excess molar volume,[1]; x1 = 0.6543,-1.3e-07 ± 3e-09 m3/mol
same,excess molar volume,[1]; x1 = 0.7452,-1.05e-07 ± 2e-09 m3/mol
same,excess molar volume,[1]; x1 = 0.7823,-9.3e-08 ± 2e-09 m3/mol
same,excess molar volume,[1]; x1 = 0.8754,-5.7e-08 ± 2e-09 m3/mol
same,excess molar volume,[1]; x1 = 0.9539,-2.3e-08 ± 2e-09 m3/mol
same,speed of sound,[1]; x1 = 0.0555,1256 ± 3 m/s
same,speed of sound,[1]; x1 = 0.1165,1253 ± 3 m/s
same,speed of sound,[1]; x1 = 0.1472,1251 ± 3 m/s
same,speed of sound,[1]; x1 = 0.2223,1248 ± 3 m/s
same,speed of sound,[1]; x1 = 0.2728,1246 ± 3 m/s
same,speed of sound,[1]; x1 = 0.3751,1241 ± 3 m/s
same,speed of sound,[1]; x1 = 0.4395,1239 ± 3 m/s
same,speed of sound,[1]; x1 = 0.4821,1237 ± 3 m/s
same,speed of sound,[1]; x1 = 0.5313,1238 ± 3 m/s
same,speed of sound,[1]; x1 = 0.6223,1233 ± 3 m/s
same,speed of sound,[1]; x1 = 0.681,1231 ± 3 m/s
same,speed of sound,[1]; x1 = 0.7321,1230 ± 3 m/s
same,speed of sound,[1]; x1 = 0.8253,1228 ± 3 m/s
same,speed of sound,[1]; x1 = 0.9123,1226 ± 3 m/s
same,excess molar enthalpy,[2]; x1 = 0.0484,-0.00779 ± 0.000287 kcal/mol
same,excess molar enthalpy,[2]; x1 = 0.0757,-0.0123 ± 0.000359 kcal/mol
same,excess molar enthalpy,[2]; x1 = 0.0978,-0.016 ± 0.00043 kcal/mol
same,excess molar enthalpy,[2]; x1 = 0.1432,-0.0235 ± 0.000574 kcal/mol
same,excess molar enthalpy,[2]; x1 = 0.2425,-0.0384 ± 0.000884 kcal/mol
same,excess molar enthalpy,[2]; x1 = 0.311,-0.0467 ± 0.00105 kcal/mol
same,excess molar enthalpy,[2]; x1 = 0.385,-0.053 ± 0.0012 kcal/mol
same,excess molar enthalpy,[2]; x1 = 0.4982,-0.0565 ± 0.00127 kcal/mol
same,excess molar enthalpy,[2]; x1 = 0.6013,-0.0531 ± 0.0012 kcal/mol
same,excess molar enthalpy,[2]; x1 = 0.6875,-0.0456 ± 0.00103 kcal/mol
same,excess molar enthalpy,[2]; x1 = 0.7073,-0.0434 ± 0.00098 kcal/mol
same,excess molar enthalpy,[2]; x1 = 0.7832,-0.0334 ± 0.000789 kcal/mol
same,excess molar enthalpy,[2]; x1 = 0.8501,-0.0233 ± 0.000574 kcal/mol
same,excess molar enthalpy,[2]; x1 = 0.923,-0.0117 ± 0.000335 kcal/mol
